Assay [1] concerns the target human Class I PI3 kinase α (Homo sapiens (Human), UniProt P42336). In words: PI3-Kinase Promega ADP-Glo Max assay, α isoform. The format is biochemical. The following applies: 20 nM kinase, 3 mM ATP, 500 uM diC8-PtdInsP; read-out: Promega α PI3K IC50. Background: ADP-Glo turns the ADP formed in a reaction into a luminescent signal.
Procedure: (§1) Promega ADP-Glo Max assay kit (Cat. No. V7002) was utilized to determine IC50 values for α, β, δ and γ isoforms of human Class I PI3 kinases (Millipore). […] Reactions were incubated at room temperature for 2 hours followed by addition of 25 uL of stop solution. After a 40-minute incubation at room temperature, 50 uL of Promega detection mix was added followed by incubation for 1 hour at room temperature. Plates were then read on Envision plate reader in luminescence mode. Data was converted to % inhibition using the following equation below: [formula] where S is the sample luminescence, Pos is a positive control without added PI3K, Neg is the negative control without added compound. Data was then plotted as % inhibition vs compound concentration.
In assay [2] the target is human Class I PI3 kinase β (Homo sapiens (Human), UniProt P42338). In words: PI3-Kinase Promega ADP-Glo Max assay, β isoform. The following applies: 40 nM kinase, 3 mM ATP, 500 uM diC8-PtdInsP; read-out: Promega β PI3K IC50. Format: biochemical.
Procedure: Promega ADP-Glo Max assay kit (Cat. No. V7002) was utilized to determine IC50 values for α, β, δ and γ isoforms of human Class I PI3 kinases (Millipore). […] Reactions were incubated at room temperature for 2 hours followed by addition of 25 uL of stop solution. After a 40-minute incubation at room temperature, 50 uL of Promega detection mix was added followed by incubation for 1 hour at room temperature. Plates were then read on Envision plate reader in luminescence mode. Data was converted to % inhibition using the following equation below:
Assay [3] has as its target human Class I PI3 kinase δ (Homo sapiens (Human), UniProt O00329). The assay is described as follows: PI3-Kinase Promega ADP-Glo Max assay, δ isoform. Format: biochemical. The following applies: 20 nM kinase, 3 mM ATP, 500 uM diC8-PtdInsP; read-out: Promega δ PI3K IC50.
Procedure: as §1
Assay [4] has as its target human Class I PI3 kinase γ (Homo sapiens (Human), UniProt P48736). The assay is described as follows: PI3-Kinase Promega ADP-Glo Max assay, γ isoform. The following applies: 40 nM kinase, 3 mM ATP, 500 uM diC8-PtdInsP; read-out: Promega γ PI3K IC50. The format is biochemical. The method, then: Promega ADP-Glo Max assay kit (Cat. No. V7002) was utilized to determine IC50 values for α, β, δ and γ isoforms of human Class I PI3 kinases (Millipore). Samples of kinase (20 nM α or δ, 40 nM β or γ isoform) were incubated with compound for 15 minutes at room temperature in reaction buffer (15 mM HEPES pH 7.4, 20 mM NaCl, 1 mM EGTA, 0.02% Tween 20, 10 mM MgCl2, 0.2 mg/mL bovine-γ-globulins) followed by addition of ATP/diC8-PtdInsP mixture to give final concentrations of 3 mM ATP and 500 uM diC8-PtdInsP. Reactions were incubated at room temperature for 2 hours followed by addition of 25 uL of stop solution. After a 40-minute incubation at room temperature, 50 uL of Promega detection mix was added followed by incubation for 1 hour at room temperature. Plates were then read on Envision plate reader in luminescence mode. Data was converted to % inhibition using the following equation below:
[formula] where S is the sample luminescence, Pos is a positive control without added PI3K, Neg is the negative control without added compound. Data was then plotted as % inhibition vs compound concentration.
Certain compounds provided herein were tested in PI3-Kinase Promega Assay using procedures as described above to determine IC50 values for α, β, δ and/or γ isoforms.

The next assay deals with p110 δ (RAJI cells) (Homo sapiens (Human), UniProt O00329). The assay is described as follows: PI3K-δ selective cellular assay: phospho-AKT in anti-human IgM stimulated RAJI cells. Format: cell-based. The following applies: serum-starved RAJI cells stimulated with anti-human IgM. From the text: A compound's ability in selectively inhibiting PI3K-δ can be assessed using RAJI cells, i.e., B lymphocyte cells derived from lymphoma patients. Briefly, serum-starved RAJI cells are stimulated with anti-human IgM, thereby causing signaling through the B-cell receptors, as described in, for example, He et al., Leukemia Research (2009) 33: 798-802. B-cell receptor signaling is important for the activation, differentiation, and survival of B cells and certain B-cell derived cancers. Reduction of phospho-AKT is indicative of compounds that may inhibit B-cell proliferation and function in certain diseases. […] Certain compounds provided herein were tested in RAJI cell model using procedures as described above.

Another assay concerns the target p110 γ (RAW264.7 cells) (Mus musculus (Mouse), UniProt Q9JHG7). In words: PI3K-γ selective cellular assay: phospho-AKT in C5a stimulated RAW264.7 macrophages. The following applies: serum-starved RAW264.7 cells stimulated with C5a. Format: cell-based. The method, then:
Certain compounds provided herein were tested in RAW 264.7 cell model using procedures as described above.

A word on the IC50: it is the midpoint of a concentration-inhibition curve.

Chain of human Class I PI3 kinase α (P42336 whole entry, canonical isoform): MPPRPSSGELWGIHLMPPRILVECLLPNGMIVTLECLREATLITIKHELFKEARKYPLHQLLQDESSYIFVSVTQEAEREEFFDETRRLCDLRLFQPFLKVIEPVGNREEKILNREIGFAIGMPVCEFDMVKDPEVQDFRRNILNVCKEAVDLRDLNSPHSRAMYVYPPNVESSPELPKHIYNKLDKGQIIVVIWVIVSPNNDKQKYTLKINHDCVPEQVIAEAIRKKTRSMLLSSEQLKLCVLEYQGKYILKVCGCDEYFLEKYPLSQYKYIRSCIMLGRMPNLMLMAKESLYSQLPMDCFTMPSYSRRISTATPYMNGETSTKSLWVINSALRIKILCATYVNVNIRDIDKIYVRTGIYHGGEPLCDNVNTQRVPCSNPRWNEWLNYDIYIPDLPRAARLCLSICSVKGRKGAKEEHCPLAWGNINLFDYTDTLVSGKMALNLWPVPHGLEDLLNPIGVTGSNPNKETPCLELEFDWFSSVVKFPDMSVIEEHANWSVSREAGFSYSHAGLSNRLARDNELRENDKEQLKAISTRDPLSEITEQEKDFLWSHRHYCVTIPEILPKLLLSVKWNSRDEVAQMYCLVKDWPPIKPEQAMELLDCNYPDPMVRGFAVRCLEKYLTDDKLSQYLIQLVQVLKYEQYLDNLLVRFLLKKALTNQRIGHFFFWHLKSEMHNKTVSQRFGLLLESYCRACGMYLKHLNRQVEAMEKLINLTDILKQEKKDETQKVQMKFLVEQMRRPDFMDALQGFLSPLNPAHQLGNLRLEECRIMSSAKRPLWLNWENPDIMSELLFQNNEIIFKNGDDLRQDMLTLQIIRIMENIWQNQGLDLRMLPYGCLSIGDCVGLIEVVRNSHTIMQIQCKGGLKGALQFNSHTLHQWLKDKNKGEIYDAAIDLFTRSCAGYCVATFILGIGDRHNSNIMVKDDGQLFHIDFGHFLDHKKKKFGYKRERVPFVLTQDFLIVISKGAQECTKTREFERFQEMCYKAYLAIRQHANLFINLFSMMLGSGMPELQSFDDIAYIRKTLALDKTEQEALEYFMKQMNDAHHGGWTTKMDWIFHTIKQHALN
Chain of human Class I PI3 kinase α (P27986 whole entry partner, canonical isoform): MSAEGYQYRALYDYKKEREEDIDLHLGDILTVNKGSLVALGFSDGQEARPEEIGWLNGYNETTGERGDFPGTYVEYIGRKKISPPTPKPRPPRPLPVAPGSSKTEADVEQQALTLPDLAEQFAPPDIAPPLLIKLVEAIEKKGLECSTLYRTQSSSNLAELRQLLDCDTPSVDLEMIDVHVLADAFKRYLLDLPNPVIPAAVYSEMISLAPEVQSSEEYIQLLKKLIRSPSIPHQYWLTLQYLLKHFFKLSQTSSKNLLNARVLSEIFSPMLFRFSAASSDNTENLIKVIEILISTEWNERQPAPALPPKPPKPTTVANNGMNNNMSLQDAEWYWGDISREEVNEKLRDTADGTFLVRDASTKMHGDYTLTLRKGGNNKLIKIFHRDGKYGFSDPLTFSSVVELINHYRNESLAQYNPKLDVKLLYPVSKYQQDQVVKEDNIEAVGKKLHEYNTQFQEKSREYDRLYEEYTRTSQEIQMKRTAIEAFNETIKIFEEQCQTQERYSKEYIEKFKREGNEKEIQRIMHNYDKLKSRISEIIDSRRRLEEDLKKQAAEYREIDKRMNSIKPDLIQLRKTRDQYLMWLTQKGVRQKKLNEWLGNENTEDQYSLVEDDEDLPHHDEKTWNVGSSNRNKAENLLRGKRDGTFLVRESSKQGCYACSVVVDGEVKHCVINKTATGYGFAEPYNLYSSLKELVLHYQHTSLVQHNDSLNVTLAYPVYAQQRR
Chain of human Class I PI3 kinase δ (O00329 whole entry, canonical isoform): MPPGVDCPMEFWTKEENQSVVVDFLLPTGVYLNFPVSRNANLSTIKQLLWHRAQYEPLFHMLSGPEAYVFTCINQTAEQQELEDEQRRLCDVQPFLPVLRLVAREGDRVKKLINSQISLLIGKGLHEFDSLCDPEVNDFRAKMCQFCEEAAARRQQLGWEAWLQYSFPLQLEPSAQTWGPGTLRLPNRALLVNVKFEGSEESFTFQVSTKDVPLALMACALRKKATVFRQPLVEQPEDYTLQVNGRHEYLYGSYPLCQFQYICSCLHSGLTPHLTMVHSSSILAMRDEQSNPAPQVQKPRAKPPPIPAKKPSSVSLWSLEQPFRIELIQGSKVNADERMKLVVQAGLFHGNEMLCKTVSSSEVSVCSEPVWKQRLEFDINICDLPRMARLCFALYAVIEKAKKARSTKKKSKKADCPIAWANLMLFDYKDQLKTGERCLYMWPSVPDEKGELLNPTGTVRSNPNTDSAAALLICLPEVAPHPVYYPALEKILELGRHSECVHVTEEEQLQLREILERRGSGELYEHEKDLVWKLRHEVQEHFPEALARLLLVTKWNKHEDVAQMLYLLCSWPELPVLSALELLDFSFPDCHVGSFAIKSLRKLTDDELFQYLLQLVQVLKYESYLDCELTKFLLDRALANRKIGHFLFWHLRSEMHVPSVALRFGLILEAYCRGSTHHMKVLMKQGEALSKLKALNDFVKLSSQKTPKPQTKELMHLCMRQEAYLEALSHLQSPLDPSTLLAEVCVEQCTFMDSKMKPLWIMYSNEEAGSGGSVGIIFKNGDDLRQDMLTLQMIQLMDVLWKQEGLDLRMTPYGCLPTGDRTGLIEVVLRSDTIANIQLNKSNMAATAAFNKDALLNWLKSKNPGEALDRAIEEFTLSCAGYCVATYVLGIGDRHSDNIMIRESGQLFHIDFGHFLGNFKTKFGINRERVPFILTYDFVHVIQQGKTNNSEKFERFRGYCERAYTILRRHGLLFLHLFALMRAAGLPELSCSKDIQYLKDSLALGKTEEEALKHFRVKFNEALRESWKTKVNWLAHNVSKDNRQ
Chain of human Class I PI3 kinase δ (P27986 whole entry partner, canonical isoform): as the sequence (P27986 whole entry partner, canonical isoform) above
Chain of p110 δ (RAJI cells) (O00329 whole entry): as the sequence (O00329 whole entry, canonical isoform) above
Chain of p110 δ (RAJI cells) (P27986 whole entry partner): as the sequence (P27986 whole entry partner, canonical isoform) above
Chain of p110 γ (RAW264.7 cells) (Q9JHG7 whole entry): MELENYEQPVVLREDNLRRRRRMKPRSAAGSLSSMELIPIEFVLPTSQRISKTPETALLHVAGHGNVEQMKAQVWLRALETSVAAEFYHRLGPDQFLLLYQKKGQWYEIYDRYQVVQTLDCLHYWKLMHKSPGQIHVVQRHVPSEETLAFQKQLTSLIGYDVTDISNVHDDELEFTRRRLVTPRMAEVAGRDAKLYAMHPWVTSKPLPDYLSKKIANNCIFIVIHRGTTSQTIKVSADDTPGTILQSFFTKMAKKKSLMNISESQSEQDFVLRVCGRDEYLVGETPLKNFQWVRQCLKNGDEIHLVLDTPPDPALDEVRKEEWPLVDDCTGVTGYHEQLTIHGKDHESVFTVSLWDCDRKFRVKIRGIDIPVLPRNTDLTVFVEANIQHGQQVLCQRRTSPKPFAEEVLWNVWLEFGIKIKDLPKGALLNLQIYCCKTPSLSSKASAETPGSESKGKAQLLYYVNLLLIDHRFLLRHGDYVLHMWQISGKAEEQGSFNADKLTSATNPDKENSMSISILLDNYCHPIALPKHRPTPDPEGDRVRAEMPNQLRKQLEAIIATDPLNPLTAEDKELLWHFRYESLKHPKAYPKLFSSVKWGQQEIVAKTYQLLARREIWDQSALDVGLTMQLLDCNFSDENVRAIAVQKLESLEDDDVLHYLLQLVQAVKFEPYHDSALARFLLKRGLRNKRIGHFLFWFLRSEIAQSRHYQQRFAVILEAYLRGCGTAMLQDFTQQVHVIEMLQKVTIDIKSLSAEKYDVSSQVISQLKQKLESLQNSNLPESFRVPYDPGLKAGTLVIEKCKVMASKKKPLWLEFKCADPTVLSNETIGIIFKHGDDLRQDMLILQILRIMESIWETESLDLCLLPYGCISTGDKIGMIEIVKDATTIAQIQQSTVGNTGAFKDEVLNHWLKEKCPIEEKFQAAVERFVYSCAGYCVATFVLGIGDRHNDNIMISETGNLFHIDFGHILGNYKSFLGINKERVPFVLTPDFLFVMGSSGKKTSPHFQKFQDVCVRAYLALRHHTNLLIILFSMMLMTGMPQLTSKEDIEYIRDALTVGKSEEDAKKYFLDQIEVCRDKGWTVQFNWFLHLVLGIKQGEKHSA

For `C[C@H](NC(=O)c1c(N)ncn2ccnc12)c1cc2cccc(Cl)c2c(=O)n1-c1ccccc1` [Compound 43], the IC50 is 1000 to 10000 nM in assay [1]; 1000 to 10000 nM in assay [2]; 100 to 500 nM in assay [3]; 10 to 100 nM in assay [4]; 1 to 10 nM at p110 δ (RAJI cells); 1 to 10 nM at p110 γ (RAW264.7 cells).
Take `C[C@H](NC(=O)c1c(N)nn2cccnc12)c1cc2cccc(Cl)c2c(=O)n1-c1ccccc1O` [Compound 68]: the IC50 in assay [1] was in the range of 1000 to 10000 nM; in assay [2], 100 to 500 nM; in assay [3], 500 to 1000 nM; in assay [4], 10 to 100 nM; on p110 δ (RAJI cells) it was 1 to 10 nM; against p110 γ (RAW264.7 cells) it was 1 to 10 nM.
With `C[C@H](NC(=O)c1c(N)nn2cccnc12)c1cc2cccc(Cl)c2c(=O)n1CCCNS(C)(=O)=O` [Compound 53], the half-maximal inhibitory concentration (IC50) in assay [1] was in the range of 500 to 1000 nM; in assay [2], 10 to 100 nM; in assay [3], 100 to 500 nM; in assay [4], 10 to 100 nM; on p110 δ (RAJI cells), 1 to 10 nM; at p110 γ (RAW264.7 cells) it was 100 to 500 nM.
`C[C@H](NC(=O)c1c(N)nn2cccnc12)c1cc2cccc(Cl)c2c(=O)n1-c1ccc(NS(C)(=O)=O)cc1` [Compound 81]: the IC50 in assay [1] lay in the range of 1000 to 10000 nM; in assay [2], 500 to 1000 nM; in assay [3], 1000 to 10000 nM; in assay [4], 1000 to 10000 nM; against p110 δ (RAJI cells), 100 to 500 nM; against p110 γ (RAW264.7 cells) it was 1000 to 10000 nM.
As to `C[C@H](NC(=O)c1c(N)nn2cccnc12)c1oc2ccc(F)cc2c(=O)c1-c1ccccc1` [Compound 96], the half-inhibitory concentration (IC50) was in the range of 1000 to 10000 nM in assay [1]; 1000 to 10000 nM in assay [2]; 1000 to 10000 nM in assay [3]; 1000 to 10000 nM in assay [4]; 100 to 500 nM against p110 δ (RAJI cells); 100 to 500 nM against p110 γ (RAW264.7 cells).
For the compound `C[C@H](NC(=O)c1c(N)nn2cccnc12)c1cc2cccc(Cl)c2c(=O)n1-c1ccccc1NS(C)(=O)=O` [Compound 78], the IC50 was in the range of 1000 to 10000 nM in assay [1]; 1000 to 10000 nM in assay [2]; 1000 to 10000 nM in assay [3]; 100 to 500 nM in assay [4]; 100 to 500 nM on p110 δ (RAJI cells); 10 to 100 nM against p110 γ (RAW264.7 cells).
Regarding `C[C@H](NC(=O)c1c(N)nn2cccnc12)c1cc2cccc(Cl)c2c(=O)n1CCc1nnn(C)n1` [Compound 56], the 50% inhibitory concentration (IC50) in assay [1] lay in the range of 1000 to 10000 nM; in assay [2], 500 to 1000 nM; in assay [3], 1000 to 10000 nM; in assay [4], 1000 to 10000 nM; against p110 δ (RAJI cells), 10 to 100 nM; on p110 γ (RAW264.7 cells), 100 to 500 nM.
As for `C[C@H](NC(=O)c1c(N)nn2cccnc12)c1nc2cccc(N3CCOCC3)c2c(=O)n1-c1ccccc1` [Compound 90], the IC50 in assay [1] was in the range of 1000 to 10000 nM; in assay [2], 1000 to 10000 nM; in assay [3], 1000 to 10000 nM; in assay [4] it was 1000 to 10000 nM; at p110 δ (RAJI cells), 1000 to 10000 nM; on p110 γ (RAW264.7 cells) it was 500 to 1000 nM.
For `C[C@H](NC(=O)c1c(N)nn2cccnc12)c1cc2cccc(Cl)c2c(=O)n1C1CCC1` [Compound 71], the IC50 in assay [1] was 1000 to 10000 nM; in assay [2] it was 500 to 1000 nM; in assay [3] it was 1000 to 10000 nM; in assay [4], 1000 to 10000 nM; against p110 δ (RAJI cells) it was 10 to 100 nM; against p110 γ (RAW264.7 cells) it was 10 to 100 nM.
Consider `C[C@H](NC(=O)c1c(N)nn2cccnc12)c1nc2c(Cl)cccc2c(=O)n1-c1ccccc1` [Compound 87], for which the IC50 in assay [1] is 1000 to 10000 nM; in assay [2], 1000 to 10000 nM; in assay [3], 1000 to 10000 nM; in assay [4] it was 1000 to 10000 nM; on p110 δ (RAJI cells) it was 100 to 500 nM; on p110 γ (RAW264.7 cells) it was 100 to 500 nM.
As to `C[C@H](NC(=O)c1c(N)nn2cccnc12)c1cc2cccc(Cl)c2c(=O)n1CCc1ccccc1` [Compound 15], the concentration for half-maximal inhibition (IC50) in assay [1] was in the range of 1000 to 10000 nM; in assay [2], 1000 to 10000 nM; in assay [3], 1000 to 10000 nM; in assay [4] it was 1000 to 10000 nM; at p110 δ (RAJI cells) it was 10 to 100 nM; against p110 γ (RAW264.7 cells) it was 100 to 500 nM.
As for `C[C@H](NC(=O)c1c(N)nn2cccnc12)c1cc2cccc(Cl)c2c(=O)n1CCc1cnn[nH]1` [Compound 63], the IC50 lay in the range of 1000 to 10000 nM in assay [1]; 100 to 500 nM in assay [2]; 1000 to 10000 nM in assay [3]; 500 to 1000 nM in assay [4]; 100 to 500 nM on p110 δ (RAJI cells); 500 to 1000 nM against p110 γ (RAW264.7 cells).
As for `C[C@H](NC(=O)c1c(N)nn2cccnc12)c1cc2cccc(OCC(F)(F)F)c2c(=O)n1-c1ccccc1` [Compound 86], the half-inhibitory concentration (IC50) in assay [1] is 1000 to 10000 nM; in assay [2] it was 1000 to 10000 nM; in assay [3], 1000 to 10000 nM; in assay [4], 1000 to 10000 nM; against p110 δ (RAJI cells) it was 1000 to 10000 nM; against p110 γ (RAW264.7 cells) it was 100 to 500 nM.
Regarding `CC(=O)Cc1cccc2nc([C@H](C)NC(=O)c3c(N)nn4cccnc34)n(-c3ccccc3)c(=O)c12` [Compound 89], the half-maximal inhibitory concentration (IC50) in assay [1] lay in the range of 1000 to 10000 nM; in assay [2], 1000 to 10000 nM; in assay [3], 500 to 1000 nM; in assay [4] it was 500 to 1000 nM; on p110 δ (RAJI cells), 100 to 500 nM; at p110 γ (RAW264.7 cells), 10 to 100 nM.
As to `Cc1cccc(-n2c([C@H](C)NC(=O)c3c(N)nn4cccnc34)cc3cccc(Cl)c3c2=O)c1` [Compound 74], the 50% inhibitory concentration (IC50) lay within 1000 to 10000 nM in assay [1]; 1000 to 10000 nM in assay [2]; 500 to 1000 nM in assay [3]; 100 to 500 nM in assay [4]; 10 to 100 nM on p110 δ (RAJI cells); 10 to 100 nM at p110 γ (RAW264.7 cells).

The record behind these values is patent publication US9751888B2, “Heterocyclic compounds and uses thereof” (Infinity Pharmaceuticals, Inc., priority 2013, dated 2017).
